Source: patent publication US20030166528A1, “Antifungal compound” (priority 2000, published 2003)
Like-named read-outs stand apart in the source and are kept apart here. Non-standard residues stand in square brackets, D forms with d. Residues, ends and D or L forms follow the SMILES beside them. 1Nal = N[C@@H](Cc1cccc2ccccc12)C(=O)O; 2Thi = N[C@@H](Cc1cccs1)C(=O)O; Nva = CCC[C@H](N)C(=O)O

Assays:
Aspergillus fumigatus = assay type: in vivo, mice
Procedure: XMP.676 was additionally tested in cyclosporin-A (CSA) immunosuppressed mice systemically infected with about 5×10^5 CFU Aspergillus fumigatus. Specifically, mice were immunosuppressed by IP injection of 50 mg/kg CSA at day-1. CSA injections continued daily for 9 consecutive days (to day 8). On Day 0, animals received the second CSA injection immediately followed by an inoculum of A. fumigatus in a 0.25 mL volume via a lateral tail injection. Treatment with XMP.676 began one hour following fungal challenge at doses of 0.3, 1.0, 3.0 or 10.0 mg/kg IP, was repeated one day later, and then continued q.o.d. for a total of 7 treatments (Days 0, 1, 3, 5, 7, 9, 11). One group was treated with saline as a control, and another group received 1.0 mg/kg amphotericin B for comparison. Mortality was recorded for 28 days. […] XMP.676 is also be tested in the absence of immunosuppression with CSA.

C. albicans [1] = assay type: in vivo, mice; settings: 5 mg/kg twice daily for 14 days, intraperitoneal; preliminary test
[2] = assay type: in vivo, rabbits
Procedure: Increasing doses of various […], or via intraperitoneal injection, to determine the maximum dose of peptide that could be administered without causing observable symptoms such as respiratory distress and loss of righting reflex. […] […] When administered via rapid intravenous injection, doses of XMP.676 higher than 2.5 mg/kg were not well tolerated, but slow injection increased the well tolerated dose two-fold to 5.0 mg/kg. When administered intraperitoneally, XMP.676 was well tolerated at doses up to and including 15.0 mg/kg. […] XMP.676 was also tested in cytarabine-treated conscious rabbits (wherein 30 mg/kg cytarabine was administered intravenously daily for 5 days prior to administration of XMP.676).

C. albicans SLU-1 [3] = assay type: cell-based; settings: radial diffusion assay
Procedure: XMP.676 was tested for in vitro antifungal activity in radial diffusion assays against C. albicans SLU-1 generally according to Examples 2 and 3 of U.S. Pat. No. 5,858,974.

[4] = in vivo
C. albicans SLU-1 [5] = assay type: in vivo, DBA/2 mice
Procedure: XMP.676 was tested for in vivo antifungal activity in mice with systemic C. albicans infection, as measured by effect on mortality, generally according to Example 4 of U.S. Pat. No. 5,858,974.
Briefly described, DBA/2 mice were inoculated with an IV injection of approximately 7×10^4 CFU C. albicans SLU-1. Desired doses of XMP.676 were prepared from a stock solution of 1 mg/mL XMP.676 in a 0.9% saline solution. Treatment with XMP.676, other antifungal agents or saline via either IV or IP routes was initiated immediately after fungal challenge. Subsequent treatments were administered q.o.d. through day 15. Mortality was recorded daily for 28 days.

C. albicans [6] = assay type: cell-based; settings: on C. albicans, with fluconazole and amphotericin-B
Procedure: (§1) In addition, checkerboard assays were used to evaluate synergy, additivity or antagonism between XMP.676 and fluconazole, amphotericin B or itraconazole. These assays were carried out on both C. albicans and A. fumigatus. Results from these experiments were used to calculate fractional inhibitory concentration (FIC) values. […] At lower concentrations of both compounds, additional synergy may be observed.

A. fumigatus = assay type: cell-based; settings: on A. fumigatus, with tested concentrations of amphotericin-B and itraconazole
Procedure: as §1

in vivo = settings: DBA/2, mouse, iv, well tolerated dose
[7] = assay type: in vitro ADME; settings: for half-life: 37° C., 250 μg/mL, read-out: biological half life
Procedure: XMP.676 was also tested for stability using a bioassay generally according to Example 5 of U.S. Pat. No. 5,858,974, wherein the peptide is incubated with SDB, RPMI, mouse serum or human serum for varying amounts of time and the resulting serum-treated product is tested for retention of antifungal activity against C. albicans SLU-1 in a FACScan assay as follows.
A solution of XMP.676 (0.5 mg/mL) was mixed with medium or fresh mouse serum or fresh human serum at a 1:1 ratio to make a 250 μg/mL solution. The resulting mixture was incubated at 37° C. Small sample volumes were removed from the incubation mixture at specific times and placed at −20° C.
Antifungal activity of the peptide/serum (or peptide/media) samples was tested as follows. Mid-log phase C. albicans were suspended in SDB at a concentration of about 1×10^6 CFU/ml. The suspension was aliquoted in 1 mL portions into polystyrene tubes. The peptide/serum mixture sample were thawed and 50 μL of each sample was aliquoted into each tube and incubated at 37° C. for various times. The cells were then pelleted and resuspended in a solution of 10 μg/mL propidium iodide/PBS and incubated for 5 minutes. Propidium iodide is a fluorescent exclusionary dye that is only taken up by the cell when cell death has occurred. Cells were analyzed for fluorescence on a FACScan instrument using cells treated with 70% ethanol as the control for 100% death, and untreated cells for zero death.

Structure (SMILES): CCC[C@H](NC(=O)[C@H](CCC(N)=O)NC(=O)[C@@H](NC(=O)[C@H](CCC)NC(=O)[C@H](Cc1cccc2ccccc12)NC(=O)[C@H](N)CCCCN)[C@@H](C)CC)C(=O)N[C@H](C(=O)N[C@@H](Cc1cccs1)C(=O)N[C@H](CCCCN)C(=O)N[C@H](CCCCN)C(N)=O)C(C)C [XMP.676, LysD-(Naph-1-Ala)-Norvaline-Ile-Gln-Norvaline-Val-(Thienyl-Ala)-LysD-LysD] (H-[dK][1Nal][Nva]IQ[Nva]V[2Thi][dK][dK]-NH2)
- reduction in mortality (Aspergillus fumigatus; 1.0 mg/kg IP q.o.d., p=0.0003, 28 days): highly statistically significant reduction in mortality
- reduction in mortality (Aspergillus fumigatus; 3.0 mg/kg IP): no reduction in mortality
- reduction in mortality (Aspergillus fumigatus; 10.0 mg/kg IP): no reduction in mortality
- reduction in mortality compared to saline control (C. albicans [1]): did not provide a reduction in mortality
- adverse events ([2]; 2.5 mg/kg IV, 30 minute single infusion): did not result in any significant adverse events
- adverse events ([2]; doses higher than 2.5 mg/kg IV infusion): resulted in mortality
- lowest minimum inhibitory concentration (MIC) observed (C. albicans SLU-1 [3]): 171 pmol
- well tolerated dose ([4]; DBA/2, mouse, iv): 5.0 mg/kg
- well tolerated doses ([4]; mouse, ip): ≤ 15.0 mg/kg
- reduction in mortality (C. albicans SLU-1 [5]; 0.5 mg/kg IV q.o.d., p<0.001, 28 days): statistically significant reduction in mortality
- reduction in mortality (C. albicans SLU-1 [5]; 1.0 mg/kg IV q.o.d., p=0.019, 28 days): reduction in mortality
- reduction in mortality (C. albicans SLU-1 [5]; 2.5 mg/kg IV q.o.d., all five experiments (p=0.005, p<0.001, p<0.001, p=0.002, p=0.015)): statistically significant reduction in mortality
- reduction in mortality (C. albicans SLU-1 [5]; 5 mg/kg IP q.o.d. or q.d., three of four experiments (p=0.0001, p=0.012, p=0.018)): statistically significant reduction in mortality
- protection, slow injection relative to rapid bolus injection (C. albicans SLU-1 [5]; IV, slow (approximately 20 seconds) vs rapid (less than about 5 seconds), 2.5 mg/kg in FIG. 2): greater delay in onset of death and greater protection
- benefit of intravenous treatment q.o.d. versus q.d. or b.i.d. (C. albicans SLU-1 [5]; intravenous): greater benefit
- synergy, additivity or antagonism (FIC) (C. albicans [6]): strong additivity or synergy
- synergy, additivity or antagonism (FIC) (A. fumigatus): additivity
- MTD (in vivo): 2.5 mg/kg
- stability in microbial media ([7]; all types of microbial media examined (SDB, RPMI)): excellent stability
- half-life ([7]; human serum): > 3 h
- half-life ([7]; mouse serum): > 3 h
